# Target: TRKA (Homo sapiens (Human), UniProt P04629)
# Test: Isolated TRK enzyme assay (HTRF KinEASE-TK), TRKA
# Format: biochemical
# Conditions: read-out: Trka enzyme (IC50)
# Sequence of TRKA (P04629 441-796): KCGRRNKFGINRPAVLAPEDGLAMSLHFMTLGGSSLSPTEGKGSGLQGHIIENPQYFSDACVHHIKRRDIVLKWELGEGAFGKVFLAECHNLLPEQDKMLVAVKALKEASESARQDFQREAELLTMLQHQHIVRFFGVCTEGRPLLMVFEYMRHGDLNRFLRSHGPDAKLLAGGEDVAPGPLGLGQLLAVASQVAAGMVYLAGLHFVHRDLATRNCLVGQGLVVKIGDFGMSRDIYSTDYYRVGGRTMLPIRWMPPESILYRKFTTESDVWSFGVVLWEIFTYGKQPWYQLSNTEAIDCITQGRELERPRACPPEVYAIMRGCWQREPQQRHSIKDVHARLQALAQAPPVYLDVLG
row,IC50 [nM],Compound
1,9810,"Cn1cc(C(=O)c2cncc(NC(=O)Cc3ccc(S(C)(=O)=O)cc3)c2)c2cncnc21 [Example 173, N-{5-[(7-methyl-7H-pyrrolo[2,3-d]pyrimidin-5-yl)carbonyl]pyridin-3-yl}-2-[4-(methylsulfonyl)phenyl]acetamide]"
2,210,"Cn1cc(C(=O)c2cncc(NC(=O)Cc3ccc(C(F)(F)F)c(F)c3)c2)c2cncnc21 [Example 174, 2-[3-fluoro-4-(trifluoromethyl)phenyl]-N-{5-[(7-methyl-7H-pyrrolo[2,3-d]pyrimidin-5-yl)carbonyl]pyridin-3-yl}acetamide]"
3,2590,"COc1cccc(CC(=O)Nc2cncc(C(=O)c3cn(C)c4ncncc34)c2)c1 [Example 175, 2-(3-methoxyphenyl)-N-{5-[(7-methyl-7H-pyrrolo[2,3-d]pyrimidin-5-yl)carbonyl]pyridin-3-yl}acetamide]"
4,165,"Cn1cc(C(=O)c2cncc(NC(=O)Cc3cccc(OC(F)(F)F)c3)c2)c2cncnc21 [Example 176, N-{5-[(7-methyl-7H-pyrrolo[2,3-d]pyrimidin-5-yl)carbonyl]pyridin-3-yl}-2-[3-(trifluoromethoxy)phenyl]acetamide]"
5,3100,"Cn1cc(C(=O)c2cncc(NC(=O)Cc3cc(F)cc(F)c3F)c2)c2cncnc21 [Example 177, N-{5-[(7-methyl-7H-pyrrolo[2,3-d]pyrimidin-5-yl)carbonyl]pyridin-3-yl}-2-(2,3,5-trifluorophenyl)acetamide]"
6,3100,"Cc1ccc2ccc(CC(=O)Nc3cncc(C(=O)c4cn(C)c5ncncc45)c3)cc2n1 [Example 178, N-{5-[(7-methyl-7H-pyrrolo[2,3-d]pyrimidin-5-yl)carbonyl]pyridin-3-yl}-2-(2-methylquinolin-7-yl)acetamide]"
7,3080,"Cn1cc(C(=O)c2cncc(NC(=O)Cc3ccccc3)c2)c2cncnc21 [Example 179, N-{5-[(7-methyl-7H-pyrrolo[2,3-d]pyrimidin-5-yl)carbonyl]pyridin-3-yl}-2-phenylacetamide]"
8,3100,"Cn1cc(C(=O)c2cncc(NC(=O)Cc3c(F)cccc3Cl)c2)c2cncnc21 [Example 180, 2-(2-chloro-6-fluorophenyl)-N-{5-[(7-methyl-7H-pyrrolo[2,3-d]pyrimidin-5-yl)carbonyl]pyridin-3-yl}acetamide]"
9,3100,"COc1ccc(CC(=O)Nc2cncc(C(=O)c3cn(C)c4ncncc34)c2)cc1 [Example 181, 2-(4-methoxyphenyl)-N-{5-[(7-methyl-7H-pyrrolo[2,3-d]pyrimidin-5-yl)carbonyl]pyridin-3-yl}acetamide]"
10,543,"Cn1cc(C(=O)c2cncc(NC(=O)Cc3ccc(SC(F)(F)F)cc3)c2)c2cncnc21 [Example 182, N-{5-[(7-methyl-7H-pyrrolo[2,3-d]pyrimidin-5-yl)carbonyl]pyridin-3-yl}-2-{4-[(trifluoromethyl)thio]phenyl}acetamide]"
11,1850,"Cn1cc(C(=O)c2cncc(NC(=O)Cc3ccc(-c4ccccc4)cc3)c2)c2cncnc21 [Example 183, 2-biphenyl-4-yl-N-{5-[(7-methyl-7H-pyrrolo[2,3-d]pyrimidin-5-yl)carbonyl]pyridin-3-yl}acetamide]"
12,579,"Cn1cc(C(=O)c2cncc(NC(=O)Cc3cc(F)c(F)cc3F)c2)c2cncnc21 [Example 184, N-{5-[(7-methyl-7H-pyrrolo[2,3-d]pyrimidin-5-yl)carbonyl]pyridin-3-yl}-2-(2,4,5-trifluorophenyl)acetamide]"
13,67.4,"Cn1cc(C(=O)c2cncc(NC(=O)Cc3cccc(SC(F)(F)F)c3)c2)c2cncnc21 [Example 185, N-{5-[(7-methyl-7H-pyrrolo[2,3-d]pyrimidin-5-yl)carbonyl]pyridin-3-yl}-2-{3-[(trifluoromethyl)thio]phenyl}acetamide]"
14,719,"Cc1ccc(CC(=O)Nc2cncc(C(=O)c3cn(C)c4ncncc34)c2)cc1 [Example 186, 2-(4-methylphenyl)-N-{5-[(7-methyl-7H-pyrrolo[2,3-d]pyrimidin-5-yl)carbonyl]pyridin-3-yl}acetamide]"
15,2630,"Cn1cc(C(=O)c2cncc(NC(=O)Cc3cc(F)c(F)c(F)c3)c2)c2cncnc21 [Example 187, N-{5-[(7-methyl-7H-pyrrolo[2,3-d]pyrimidin-5-yl)carbonyl]pyridin-3-yl}-2-(3,4,5-trifluorophenyl)acetamide]"
16,277,"Cc1ccc(CC(=O)Nc2cncc(C(=O)c3cn(C)c4ncncc34)c2)c(C)c1 [Example 188, 2-(2,4-dimethylphenyl)-N-{5-[(7-methyl-7H-pyrrolo[2,3-d]pyrimidin-5-yl)carbonyl]pyridin-3-yl}acetamide]"
17,836,"Cn1cc(C(=O)c2cncc(NC(=O)Cc3ccc4c(c3)CCO4)c2)c2cncnc21 [Example 189, 2-(2,3-dihydro-1-benzofuran-5-yl)-N-{5-[(7-methyl-7H-pyrrolo[2,3-d]pyrimidin-5-yl)carbonyl]pyridin-3-yl}acetamide]"

row,IC50 [nM],Compound
1,820,"Cn1cc(C(=O)c2cncc(NC(=O)Cc3cc(F)ccc3F)c2)c2cncnc21 [Example 190, 2-(2,5-difluorophenyl)-N-{5-[(7-methyl-7H-pyrrolo[2,3-d]pyrimidin-5-yl)carbonyl]pyridin-3-yl}acetamide]"
2,873,"Cn1cc(C(=O)c2cncc(NC(=O)Cc3ccc(F)cc3F)c2)c2cncnc21 [Example 191, 2-(2,4-difluorophenyl)-N-{5-[(7-methyl-7H-pyrrolo[2,3-d]pyrimidin-5-yl)carbonyl]pyridin-3-yl}acetamide]"
3,173,"Cn1cc(C(=O)c2cncc(NC(=O)Cc3cccc(C(F)(F)F)c3F)c2)c2cncnc21 [Example 192, 2-[2-fluoro-3-(trifluoromethyl)phenyl]-N-{5-[(7-methyl-7H-pyrrolo[2,3-d]pyrimidin-5-yl)carbonyl]pyridin-3-yl}acetamide]"
4,3570,"Cn1cc(C(=O)c2cncc(NC(=O)Cc3c(F)cccc3F)c2)c2cncnc21 [Example 193, 2-(2,6-difluorophenyl)-N-{5-[(7-methyl-7H-pyrrolo[2,3-d]pyrimidin-5-yl)carbonyl]pyridin-3-yl}acetamide]"
5,101,"Cn1cc(C(=O)c2cncc(NC(=O)Cc3cccc(C(F)(F)F)c3)c2)c2cncnc21 [Example 194, N-{5-[(7-methyl-7H-pyrrolo[2,3-d]pyrimidin-5-yl)carbonyl]pyridin-3-yl}-2-[3-(trifluoromethyl)phenyl]acetamide]"
6,835,"Cn1cc(C(=O)c2cncc(NC(=O)Cc3ccc(F)c(F)c3)c2)c2cncnc21 [Example 195, 2-(3,4-difluorophenyl)-N-{5-[(7-methyl-7H-pyrrolo[2,3-d]pyrimidin-5-yl)carbonyl]yridine-3-yl}acetamide]"
7,791,"Cn1cc(C(=O)c2cncc(NC(=O)Cc3ccc(OC(F)(F)F)cc3)c2)c2cncnc21 [Example 196, N-{5-[(7-methyl-7H-pyrrolo[2,3-d]pyrimidin-5-yl)carbonyl]yridine-3-yl}-2-[4-(trifluoromethoxy)phenyl]acetamide]"
8,430,"Cn1cc(C(=O)c2cncc(NC(=O)Cc3cccc(Cl)c3)c2)c2cncnc21 [Example 197, 2-(3-chlorophenyl)-N-{5-[(7-methyl-7H-pyrrolo[2,3-d]pyrimidin-5-yl)carbonyl]yridine-3-yl}acetamide]"
9,2350,"Cn1cc(C(=O)c2cncc(NC(=O)CCc3ccccc3Cl)c2)c2cncnc21 [Example 198, 3-(2-chlorophenyl)-N-{5-[(7-methyl-7H-pyrrolo[2,3-d]pyrimidin-5-yl)carbonyl]pyridin-3-yl}propanamide]"
10,22.1,"CC(C)(C)n1cc(C(=O)c2cncc(NC(=O)Cc3coc(C4CC4)n3)c2)c2cncnc21 [Example 199, N-{5-[(7-tert-butyl-7H-pyrrolo[2,3-d]pyrimidin-5-yl)carbonyl]pyridin-3-yl}-2-(2-cyclopropyl-1,3-oxazol-4-yl)acetamide]"
11,10.1,"CC(C)(C)n1cc(C(=O)c2cncc(NC(=O)Cc3cccc(S(C)(=O)=O)c3)c2)c2cncnc21 [Example 200, N-{5-[(7-tert-butyl-7H-pyrrolo[2,3-d]pyrimidin-5-yl)carbonyl]pyridin-3-yl}-2-[3-(methylsulfonyl)phenyl]acetamide]"
12,482,"Cc1nn(C)cc1CC(=O)Nc1cncc(C(=O)c2cn(C(C)(C)C)c3ncncc23)c1 [Example 201, N-{5-[(7-tert-butyl-7H-pyrrolo[2,3-d]pyrimidin-5-yl)carbonyl]pyridin-3-yl}-2-(1,3-dimethyl-1H-pyrazol-4-yl)acetamide]"
13,412,"Cn1cc(CC(=O)Nc2cncc(C(=O)c3cn(C(C)(C)C)c4ncncc34)c2)cn1 [Example 202, N-{5-[(7-tert-butyl-7H-pyrrolo[2,3-d]pyrimidin-5-yl)carbonyl]pyridin-3-yl}-2-(1-methyl-1H-pyrazol-4-yl)acetamide]"
14,316,"Cn1cc(CC(=O)Nc2cncc(C(=O)c3cn(C(C)(C)C)c4ncncc34)c2)c(C2CC2)n1 [Example 203, N-{5-[(7-tert-butyl-7H-pyrrolo[2,3-d]pyrimidin-5-yl)carbonyl]pyridin-3-yl}-2-(3-cyclopropyl-1-methyl-1H-pyrazol-4-yl)acetamide]"
15,4.24,"C[C@@H](CO)n1cc(C(=O)c2cncc(NC(=O)Cc3cccc(C(F)(F)F)c3)c2)c2cncnc21 [Example 204, N-[5-({7-[(1S)-2-hydroxy-1-methylethyl]-7H-pyrrolo[2,3-d]pyrimidin-5-yl}carbonyl)pyridin-3-yl]-2-[3-(trifluoromethyl)phenyl]acetamide]"
16,12.2,"C[C@H](CO)n1cc(C(=O)c2cncc(NC(=O)Cc3cccc(C(F)(F)F)c3)c2)c2cncnc21 [Example 205, N-[5-({7-[(1R)-2-hydroxy-1-methylethyl]-7H-pyrrolo[2,3-d]pyrimidin-5-yl}carbonyl)pyridin-3-yl]-2-[3-(trifluoromethyl)phenyl]acetamide]"
17,123,"CC(C)c1cn(CC(=O)Nc2cncc(C(=O)c3cn([C@H](C)CO)c4ncncc34)c2)nn1 [Example 206, N-[5-({7-[(1R)-2-hydroxy-1-methylethyl]-7H-pyrrolo[2,3-d]pyrimidin-5-yl}carbonyl)pyridin-3-yl]-2-(4-isopropyl-1H-1,2,3-triazol-1-yl)acetamide]"
